For one experiment, the target named is T1, BRD4 BD1 (Homo sapiens, UniProt O60885).
T1 construct: made in house
The experiment in a line: AlphaScreen binding assay, BRD4 Bromodomain 1. The procedure, abridged:
(§1)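 Compound dilution series were mixed with His-tagged BRD4 bromodomain and biotinylated tetra-acetylated H4 (1-21) peptide at pH 7.3 (BD1 and peptide at 50 nM, BD2 and peptide at 100 nM). Donor and acceptor beads were then added, and plates were equilibrated at least 1 h before reading. IC50 values were fitted with a four-parameter logistic model.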

Another experiment deals with T2, BRD4 BD2 (Homo sapiens, UniProt O60885).
T2 construct: made in house
Description: AlphaScreen binding assay, BRD4 Bromodomain 2. The procedure, abridged:
as §1

The next experiment deals with MV4-11 cells. Description: Oncology cell growth assay (3-day proliferation, CellTiter-Glo). It counts as cell-based. The conditions noted are these: Homo sapiens, MV4-11, 72 h, AML cell line MV4-11, 72 hours, compounds grouped by IC50 range, read-out: MV4-11 IC50 (inhibition of proliferation, gIC50). The essentials: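 MV4-11 AML cells (RPMI 1640, 10% FBS) plated at 3000 cells/well and exposed 72 h to compound at final 10 to 0.0045 μM (3-fold series). Viability read by CellTiter-Glo luminescence; gIC50 from four-parameter logistic fit between DMSO control and no-cell background.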

Regarding `CC(=O)N1c2ccc(-c3ccc(S(=O)(=O)CC4CC4)cc3)cc2N(C(=O)OC2CCCCC2)C[C@@H]1C` [Example I-1237], the IC50 on BRD4 BD1 fell in the range of 100 to 1000 nM; at BRD4 BD2 it was 50 to 500 nM; in the experiment on MV4-11 cells it was 100 to 500 nM.

`CC(=O)N1c2ccc(-c3ccc(S(C)(=O)=O)cc3)cc2N(C(=O)OC(C)C)C[C@@H]1C` [Example I-294]: the results for the IC50 on BRD4 BD1, at BRD4 BD2 and in the experiment with MV4-11 cells were 100 to 1000 nM, < 50 nM and 100 to 500 nM, respectively.

On to `CC(=O)N1c2ccc(-c3ccc(S(=O)(=O)C(C)C)cc3)cc2N(C(=O)c2ccco2)C[C@@H]1C` [Example I-288], for which the IC50 is 1000 to 10000 nM on BRD4 BD1, < 50 nM at BRD4 BD2 and 100 to 500 nM in the experiment with MV4-11 cells.

Turning to `CC(=O)N1c2ccc(-c3ccc(NS(C)(=O)=O)cc3)cc2N(C(=O)Oc2ccccn2)C[C@@H]1C` [Example I-1316], the IC50 on BRD4 BD1 is 100 to 1000 nM; at BRD4 BD2, 50 to 500 nM; in the experiment on MV4-11 cells, 100 to 500 nM.

Regarding `CCOC(=O)N1C[C@H](C)N(C(C)=O)c2ccc(-c3ccc(S(=O)(=O)NC)cc3)cc21` [Example I-1121], the values for the IC50 on BRD4 BD1, at BRD4 BD2 and in the experiment with MV4-11 cells were 1000 to 10000 nM, 50 to 500 nM and 100 to 500 nM, respectively.

For the molecule `CC(=O)N1c2ccc(-c3cnn(C4CCNCC4)c3)cc2N(c2nn(C)c3ccccc23)C[C@@H]1C` [Example I-181, 1-[(2S)-2-methyl-4-(1-methyl-1H-indazol-3-yl)-6-[1-(piperidin-4-yl)-1H-pyrazol-4-yl]-1,2,3,4-tetrahydroquinoxalin-1-yl]ethan-1-one], the results for the IC50 at BRD4 BD1, at BRD4 BD2 and with MV4-11 cells were 100 to 1000 nM, < 50 nM and < 100 nM, respectively.

For `CC(=O)N1c2ccc(-c3cccc(NS(=O)(=O)N(C)C)c3)cc2N(C(=O)OC2CCCCC2)C[C@@H]1C` [Example I-1273], the IC50 on BRD4 BD1 was 100 to 1000 nM; at BRD4 BD2, 50 to 500 nM; in the experiment with MV4-11 cells, 100 to 500 nM.

`CC(=O)N1c2ccc(-c3ccc(N4CCCS4(=O)=O)cc3)cc2N(C(=O)OC2CC(F)(F)C2)C[C@@H]1C` [Example I-29, 3,3-difluorocyclobutyl (3S)-4-acetyl-7-[4-(1,1-dioxo-1λ^6,2-thiazolidin-2-yl)phenyl]-3-methyl-1,2,3,4-tetrahydroquinoxaline-1-carboxylate]: the values for the IC50 on BRD4 BD1, on BRD4 BD2 and with MV4-11 cells were 100 to 1000 nM, > 500 nM and > 500 nM, respectively.

As for `CCS(=O)(=O)Nc1cccc(-c2ccc3c(c2)N(C(=O)C2CC2)C[C@H](C)N3C(C)=O)c1` [Example I-1054], the IC50 is 1000 to 10000 nM on BRD4 BD1, 50 to 500 nM at BRD4 BD2 and 100 to 500 nM in the experiment on MV4-11 cells.

On to `COC(=O)N1c2ccc(-c3cnn(CCC#N)c3)cc2N(C(=O)Oc2ccc(F)cc2)C[C@@H]1C` [Example I-1025], for which the IC50 on BRD4 BD1 was 100 to 1000 nM; at BRD4 BD2, < 50 nM; in the experiment with MV4-11 cells, > 500 nM.

As to `CCOC(=O)N1C[C@H](C)N(C(C)=O)c2ccc(-c3cccc(NS(=O)(=O)N(C)C)c3)cc21` [Example I-1145], the figures for the IC50 on BRD4 BD1, on BRD4 BD2 and in the experiment with MV4-11 cells were 1000 to 10000 nM, 50 to 500 nM and > 500 nM, respectively.

`CNS(=O)(=O)c1cccc(-c2ccc3c(c2)N(C(=O)OC2CCCCC2)C[C@H](C)N3C(C)=O)c1` [Example I-1253]: the values for the IC50 at BRD4 BD1, at BRD4 BD2 and in the experiment on MV4-11 cells were 100 to 1000 nM, 50 to 500 nM and 100 to 500 nM, respectively.

Consider `CC(=O)N1c2ccc(-c3ccc(N4CCOCC4)cc3)cc2N(C(=O)OC2CCOCC2)C[C@@H]1C` [Example I-1230], for which the IC50 was 100 to 1000 nM at BRD4 BD1, 50 to 500 nM on BRD4 BD2 and 100 to 500 nM in the experiment with MV4-11 cells.

Regarding `CC(=O)N1c2ccc(-c3ccc(F)c(S(C)(=O)=O)c3)cc2N(C(=O)OC2CCOCC2)C[C@@H]1C` [Example I-1250], the IC50 was 1000 to 10000 nM on BRD4 BD1, > 500 nM on BRD4 BD2 and > 500 nM in the experiment with MV4-11 cells.

In the case of `CCS(=O)(=O)Nc1cccc(-c2ccc3c(c2)N(C(=O)C2CCC2)C[C@H](C)N3C(C)=O)c1` [Example I-1055], the IC50 at BRD4 BD1 is 1000 to 10000 nM; at BRD4 BD2 it was 50 to 500 nM; in the experiment on MV4-11 cells it was > 500 nM.

`CC(=O)N1c2ccc(-c3cccc(S(N)(=O)=O)c3)cc2N(C(=O)C2CC2)C[C@@H]1C` [Example I-1039]: the IC50 on BRD4 BD1 was 1000 to 10000 nM; on BRD4 BD2, < 50 nM; in the experiment with MV4-11 cells it was 100 to 500 nM.

For the molecule `CC(=O)N1c2ccc(-c3ccc(OCCS(C)(=O)=O)cc3)cc2N(C(=O)OC(C)C)C[C@@H]1C` [Example I-1103], the IC50 is 100 to 1000 nM at BRD4 BD1, 50 to 500 nM on BRD4 BD2 and > 500 nM in the experiment with MV4-11 cells.

For `CNC(=O)CN(C)C(=O)c1ccc(-c2ccc3c(c2)N(C(=O)OC(C)C)C[C@H](C)N3C(=O)OC)cc1` [Example I-563], the IC50 on BRD4 BD1 lay in the range of 100 to 1000 nM; at BRD4 BD2, 50 to 500 nM; in the experiment with MV4-11 cells, 100 to 500 nM.

`CC(=O)N1c2ccc(-c3ccc(N(C)S(C)(=O)=O)cc3)cc2N(C(=O)Oc2ccccn2)C[C@@H]1C` [Example I-1330]: the IC50 at BRD4 BD1 lay in the range of 100 to 1000 nM; at BRD4 BD2, 50 to 500 nM; with MV4-11 cells, 100 to 500 nM.

In the case of `CCC(C)OC(=O)N1C[C@H](C)N(C(C)=O)c2ccc(-c3ccc(S(C)(=O)=O)cc3)cc21` (stereo partly drawn) [Example I-494], the IC50 on BRD4 BD1 was 100 to 1000 nM; on BRD4 BD2, 50 to 500 nM; with MV4-11 cells it was 100 to 500 nM.

With `CC(=O)N1c2ccc(-c3cnn(C4CCCS(=O)(=O)C4)c3)cc2N(C(=O)C2CC2)C[C@@H]1C` (stereo partly drawn) [Example I-1310], the values for the IC50 on BRD4 BD1, on BRD4 BD2 and in the experiment with MV4-11 cells were 100 to 1000 nM, 50 to 500 nM and > 500 nM, respectively.

In the case of `CC(=O)N1c2ccc(-c3ccccc3)cc2N(C(=O)c2ccco2)C[C@@H]1C` [Example I-804], the IC50 is 1000 to 10000 nM on BRD4 BD1, < 50 nM at BRD4 BD2 and 100 to 500 nM with MV4-11 cells.

As to `CC(=O)N1c2ccc(-c3ccc(C4(O)COC4)cc3)cc2N(C(=O)C2CC2)C[C@@H]1C` [Example I-443], the IC50 at BRD4 BD1 was 100 to 1000 nM; at BRD4 BD2 it was < 50 nM; in the experiment on MV4-11 cells, 100 to 500 nM.

Turning to `CC(=O)N1c2ccc(-c3cccc(S(=O)(=O)NCCO)c3)cc2N(C(=O)C2CC2)C[C@@H]1C` [Example I-1108], the results for the IC50 at BRD4 BD1, on BRD4 BD2 and in the experiment on MV4-11 cells were 1000 to 10000 nM, 50 to 500 nM and 100 to 500 nM, respectively.

For `CC(=O)N1c2ccc(-c3cnn(C4CC4)c3)cc2N(C(=O)Oc2ccc(F)cc2F)C[C@@H]1C` [Example I-499], the IC50 at BRD4 BD1 lay in the range of 100 to 1000 nM; on BRD4 BD2, 50 to 500 nM; with MV4-11 cells, 100 to 500 nM.

Regarding `CC(=O)N1c2ccc(-c3cccc(N4CCCS4(=O)=O)c3)cc2N(C(=O)OC(C)C)C[C@@H]1C` [Example I-1153], the IC50 on BRD4 BD1 was in the range of 100 to 1000 nM; at BRD4 BD2, 50 to 500 nM; in the experiment with MV4-11 cells, 100 to 500 nM.

On to `CC(=O)N1c2ccc(-c3ccc(S(=O)(=O)N(C)C)c(C)c3)cc2N(C(=O)C2CC2)C[C@@H]1C` [Example I-1300], for which the IC50 on BRD4 BD1 is 100 to 1000 nM; at BRD4 BD2, 50 to 500 nM; in the experiment with MV4-11 cells, > 500 nM.

Consider `CC(=O)N1c2ccc(-c3ccc4c(c3)N(C)S(=O)(=O)N4)cc2N(C(=O)C2CCC2)C[C@@H]1C` [Example I-1176], for which the IC50 is 100 to 1000 nM at BRD4 BD1, < 50 nM at BRD4 BD2 and > 500 nM with MV4-11 cells.

As to `CCN(CC)S(=O)(=O)c1cc(-c2ccc3c(c2)N(C(=O)C2CCC2)C[C@H](C)N3C(C)=O)ccc1OC` [Example I-1113], the IC50 on BRD4 BD1 is 1000 to 10000 nM; at BRD4 BD2 it was 50 to 500 nM; in the experiment on MV4-11 cells it was 100 to 500 nM.

`CC(=O)N1c2ccc(-c3ccc(N4CCCS4(=O)=O)cc3)cc2N(C(=O)Oc2ccc(F)cc2F)C[C@@H]1C` [Example I-1011]: the IC50 at BRD4 BD1 was 100 to 1000 nM; at BRD4 BD2, < 50 nM; with MV4-11 cells it was 100 to 500 nM.

As to `CC(=O)N1c2ccc(-c3ccc(C(=O)N4CC[C@@H](N)C4)cc3)cc2N(C(=O)OC(C)C)C[C@@H]1C` [Example I-532], the IC50 was 100 to 1000 nM on BRD4 BD1, 50 to 500 nM on BRD4 BD2 and 100 to 500 nM in the experiment with MV4-11 cells.

Consider `CC(=O)N1c2ccc(-c3ccc(S(C)(=O)=O)cc3)cc2N(C(=O)OC2CCCC2)C[C@@H]1C` [Example I-236], for which the IC50 was 1000 to 10000 nM on BRD4 BD1, > 500 nM at BRD4 BD2 and > 500 nM in the experiment with MV4-11 cells.

Take `CC(=O)N1c2ccc(-c3ccc(S(=O)(=O)N(C)C)cc3)cc2N(C(=O)C2CC2)C[C@@H]1C` [Example I-1123]: the results for the IC50 at BRD4 BD1, on BRD4 BD2 and in the experiment with MV4-11 cells were 1000 to 10000 nM, 50 to 500 nM and 100 to 500 nM, respectively.

On to `CC(=O)N1c2ccc(-c3cnn(Cc4ccccn4)c3)cc2N(C(=O)OC(C)C)C[C@@H]1C` [Example I-120, (S)-isopropyl 4-acetyl-3-methyl-7-(1-(pyridin-2-ylmethyl)-1H-pyrazol-4-yl)-3,4-dihydroquinoxaline-1(2H)-carboxylate], for which the IC50 is 100 to 1000 nM on BRD4 BD1, < 50 nM at BRD4 BD2 and 100 to 500 nM with MV4-11 cells.

On to `CC(=O)N1c2ccc(-c3ccc(NS(C)(=O)=O)cc3)cc2N(C(=O)Oc2ccc(F)cc2)C[C@@H]1C` [Example I-1019], for which the IC50 at BRD4 BD1 was 100 to 1000 nM; on BRD4 BD2, < 50 nM; in the experiment with MV4-11 cells, 100 to 500 nM.

Turning to `CC(=O)N1c2ccc(-c3cnn(C4CC4)c3)cc2N(c2nc3ccccc3o2)C[C@@H]1C` [Example I-44, (S)-1-(4-(benzo[d]oxazol-2-yl)-6-(1-cyclopropyl-1H-pyrazol-4-yl)-2-methyl-3,4-dihydroquinoxalin-1(2H)-yl)ethanone], the figures for the IC50 at BRD4 BD1, at BRD4 BD2 and with MV4-11 cells were 100 to 1000 nM, 50 to 500 nM and 100 to 500 nM, respectively.
